# According to patent publication US4308249A, “Radiopharmaceutical complexes of N-(tri-substituted alkyl)-iminodiacetic acids” (priority 1979, dated 1981):
# Columns and labels:
# [1] = Disposition of radioactivity in female rhesus monkey after i.v. chelate, Anger camera scintigraphy (Table 4); format: in vivo; design: key to Relative Distribution of Chelate: Vascular / Relative Distribution of Chelate: Liver / Relative Distribution of Chelate: Gallbladder / Relative Distribution of Chelate: Intestine: -: no statistically significant measured radioactivity; ±: relative amounts of measured radioactivity; +: relative amounts of measured radioactivity; ++: relative amounts of measured radioactivity; +++: the maximum measured radioactivity
# Procedure: (§1) This procedure used with the rabbit was repeated with additional anesthetized animals; a female beagle dog weighing 9.25 kilograms, and a female rhesus monkey weighing 7.9 kilograms. Again 0.1 to 1.0 milliliter of the solution containing 0.5 to 5 milligrams of the same chelate and prepared as in Examples 1 and 2 was administered in each case. One difference was that unlike the case of the rabbit, the chelate solution was injected intravenously in the saphenous vein of the dog or monkey. In separate tests with the female beagle, (1) a solution having 1.13 mCi of the chelate and (2) a solution having a 3.10 mCi of the chelate were administered, and the disposition of radioactivity in the dog was monitored for one hour and 3 hours, respectively. In addition, FIG. 1 represents results of the test involving administration of 3.10 mCi of radioactive chelate to the female beagle dog.
# (§2) In the test using the female rhesus monkey, 0.1 to 1.0 milliliter of a solution of the chelate of technetium-99 m and N-(3-cyano-3,3-diphenylpropyl)-iminodiacetic acid prepared as in Examples 1 and 2 and having a radioactivity of 1.23 mCi and containing 0.5 to 5 milligrams of the same chelate was administered and the disposition of the radioactive material in the monkey was monitored for one hour.
# (§3) At various times after administration of a solution of a chelate of this invention which are indicated in Tables 1-4, scintiscan photographs and video tape recordings were taken of the rabbit, female beagle and monkey using the Anger camera. This instrument was a Pho-Gamma LFOV Scintillation Camera System, Model 6413, fitted with a Model 3137 Vari-Back Camera, a Model 3122 Data-Store/Playback System and a Model 27851 Analog-Digital/Digital-Analog Converter (all Searle Radiographics, Inc.). This entire system was interfaced with a Xerox 530 computer (Xerox Corp., Minneapolis, Minn.) which was programmed to record net counts per unit of time and percents of total counts in individual organs and to plot organ radioactivity versus time and to separate the radioactivity of the gallbladder from the radioactivity of the liver. The camera was operated with a 140 keV high resolution Type II converging collimator using a 20 percent technetium-99 m window. Generally 400,000 counts were accumulated on each scintiscan using both video tape and self-developing film, with the animal in the full ventral position. The photographs represented a visualization of the anatomic relationships in the hepatobiliary system.
# (§4) The video tape was processed by computer for quantification of the distribution of the technetium-99 m chelate radioactivity in the organs of the animals. Tables 1-4 contain semi-quantitative representations of the distribution of radioactivity in the organs of the test animals calculated from the scintiscans. In Tables 1-4, (-), (±), (+), (++) and (+++) indicate relative amounts of measured radioactivity ranging from (-) for no statistically significant measured radioactivity to (+++) for the maximum measured radioactivity.
# [2] = Disposition of radioactivity in female beagle dog after i.v. chelate, Anger camera scintigraphy (Tables 2 and 3, FIG. 1); format: in vivo; design: key to Relative Distribution of Chelate: Vascular / Relative Distribution of Chelate: Liver / Relative Distribution of Chelate: Gallbladder: -: no statistically significant measured radioactivity; ±: relative amounts of measured radioactivity; +: relative amounts of measured radioactivity; ++: relative amounts of measured radioactivity; +++: the maximum measured radioactivity; conditions: for Relative Distribution of Chelate: Gallbladder / Relative Distribution of Chelate: Liver / Relative Distribution of Chelate: Vascular: i.v.
# Procedure: as §1, §3, §4
# The disappearance of the radioactive chelate from the liver and its appearance in the gallbladder of the female beagle as well as the presence of the radioactive chelate in the total hepatobiliary system of the female beagle was calculated from video tape measurements by the computer and are plotted as percentages of total radioactivity administered in the form of the radioactive chelate versus time after administration in FIG. 1. At about 120 minutes after administration, about 75 percent of the total radioactivity administered was concentrated in the gallbladder, and in excess of 90 percent of the total dose of the radioactive chelate was in the hepatobiliary system. Approximately 50 percent of the radioactive chelate in the total hepatobiliary system had passed from the liver into the gallbladder within about 45 minutes after administration.
# [3] = Whole blood clearance of radioactivity in male mongrel dog, gamma spectrometer (FIG. 3); format: in vivo
# Procedure: The procedures for injecting and taking and analyzing blood samples from the female beagle were repeated with a male mongrel dog weighing 14.1 kilograms, and the results are presented in FIG. 3. In this case, a sample of 0.1 to 1.0 milliliter of a solution of the chelate of technetium-99 m and N-(3-cyano-3,3-diphenylpropyl)-iminodiacacetic acid prepared as in Examples 1 and 2 and having a radioactivity of 3.08 mCi and containing 0.5 to 5 milligrams of the chelate was administered. In this case, the radioactivity of one milliliter samples of whole blood was measured.
# (§5) The gamma spectrometer employed was a Model 1185 Gamma Scintillation Spectrometer (Searle Analytic Inc., Des Plaines, Ill.). One milliliter samples of plasma or whole blood were analyzed for technetium-99 m, and samples were counted for 1 minute. FIGS. 2 and 3 show the radioactivity present in the plasma or whole blood, respectively, versus the time in hours after administration of the chelate to the animals. As determined by the computer, curves A and B were the best fitting curves passing through the plots of experimentally measured radioactivities. […] This illustrates that, after being distributed throughout the body the chelate of this invention is cleared relatively quickly from the […].
# [4] = Organ radioactivity and imaging in test animals (all species) after i.v. chelate; format: in vivo, rabbit, dog, monkey
# Procedure: (§6) A volume of a solution of the chelate of technetium-99 m and N-(3-cyano-3,3-diphenylpropyl)-iminodiacetic acid prepared as in Examples 1 and 2 in the range of 0.1 to 1.0 milliliter and having a radioactivity of 1.2 millicuries and containing 0.5 to 5 milligrams of the chelate was administered intravenously to an anesthetized New Zealand rabbit weighing about 3 kilograms using a 1 milliliter tuberculin syringe connected to a #23 gauge indwelling cannula inserted into a marginal ear vein. The rabbit was positioned in a full ventral position for four hours during which time the disposition of the radioactivity in the rabbit in this position was monitored using a computer-augmented Anger camera.
# as §1, §2, §3
# [5] = Disposition of radioactivity in rabbit after i.v. chelate, Anger camera scintigraphy (Table 1); format: in vivo, New Zealand rabbit; design: key to Relative Distribution of Chelate: Vascular / Relative Distribution of Chelate: Liver / Relative Distribution of Chelate: Gallbladder / Relative Distribution of Chelate: Intestine: -: no statistically significant measured radioactivity; ±: relative amounts of measured radioactivity; +: relative amounts of measured radioactivity; ++: relative amounts of measured radioactivity; +++: the maximum measured radioactivity
# Procedure: as §6, §3, §4
# [6] = Plasma clearance of radioactivity in female beagle, gamma spectrometer (FIG. 2); format: in vivo, female beagle dog
# Procedure: In addition, periodically during the time of monitoring the distribution of radioactivity in the female beagle, blood samples were removed from the jugular vein of the animal and collected in vacuum tubes containing the disodium salt of ethylendiaminetetraacetic acid and the radioactivity of one milliliter samples of plasma was measured in a gamma spectrometer.
# as §5
# [7] = Urinary excretion of radioactivity in male mongrel dog; format: in vivo; conditions: through 2 hours after administration
# [8] = i.v., 1.23 mCi, minutes after administration: 1, 10, 20, 30, 40, 50, 60
# [9] = female beagle, about 120 minutes after administration
# [10] = female beagle, 1.13 mCi (Table 2), minutes after administration: 1, 10, 20, 30, 40, 50, 60
# [11] = female beagle, 3.10 mCi (Table 3), minutes after administration: b87 10, b88 25, b89 35, b90 65, b91 102, b92 160
# [12] = test animals, first 3 hours after administration
# [13] = i.v., 1.2 mCi, minutes after administration: 0.5, 3, 10, 20, 30, 60, 120, 180, 240
# [14] = within 120 minutes after administration
substance,measurement,setting,value
"chelate of technetium-99 m and N-(3-cyano-3,3-diphenylpropyl)-iminodiacetic acid",appearance of the chelate in the gallbladder compared with rabbit,[1],slower than in the case of the rabbit
same,route of clearance from the vascular system,[1],exclusively by the liver and biliary excretion
same,Relative Distribution of Chelate: Gallbladder,[1]; [8],- and +
same,Relative Distribution of Chelate: Intestine,[1]; [8],- and + and ++ and +++
same,Relative Distribution of Chelate: Liver,[1]; [8],+++ and ++ and +
same,Relative Distribution of Chelate: Vascular,[1]; [8],+ and -
same,administered chelate appeared in the liver,"[2]; dog, within 15 minutes after administration",more than 70%
same,appearance of the chelate in the gallbladder compared with rabbit,[2]; female beagle,slower than in the case of the rabbit
same,excretion of the chelate from the gallbladder into the intestine compared with rabbit or monkey,[2]; female beagle,slower in the female beagle than either in the rabbit or monkey
same,route of clearance from the vascular system,[2]; female beagle,exclusively by the liver and biliary excretion
same,total dose of the radioactive chelate in the hepatobiliary system,[2]; [9],> 90%
same,total radioactivity administered concentrated in the gallbladder,[2]; [9],about 75%
same,Relative Distribution of Chelate: Gallbladder,[2]; [10],- and + and ++ and +++
same,Relative Distribution of Chelate: Liver,[2]; [10],++ and +++ and +
same,Relative Distribution of Chelate: Vascular,[2]; [10],++ and -
same,Relative Distribution of Chelate: Gallbladder,[2]; [11],- and + and ++ and +++
same,Relative Distribution of Chelate: Liver,[2]; [11],+++ and ++ and + and ± and -
same,Relative Distribution of Chelate: Vascular,[2]; [11],+ and -
same,radioactive chelate in the total hepatobiliary system passed from the liver into the gallbladder,"[2]; female beagle, within about 45 minutes after administration",Approximately 50%
same,administered radioactivity accumulated in the hepatobiliary system,"[2]; female dog, during the first 30 minutes",more than 85%
same,clearance kinetics,[3],bi-exponential decay
same,half time of distributive phase of clearance,[3]; 3.08 mCi,0.13 h
same,half time of elimination phase of clearance,[3]; 3.08 mCi,3.5 h
same,distribution throughout the cardiovascular system,[4]; after intravenous administration,rapidly distributed throughout the cardiovascular system
same,imaging of liver and gallbladder,"[4]; all species, first 3 hours after administration",in all species the conformation of these organs was easily seen and distinguished
same,urinary excretion,[4]; in vivo,virtually no urinary excretion
same,ratio of measured radioactivity in the gallbladder to measured background radioactivity,[4]; [12],150-200 to 1
same,ratio of measured radioactivity of the liver to measured background radiation,[4]; [12],10-20 to 1
same,route of clearance from the vascular system,[5],solely by the liver and biliary excretion
same,time to appearance of chelate in the gallbladder,[5],≤ 3 min
same,Relative Distribution of Chelate: Gallbladder,[5]; [13],- and + and ++
same,Relative Distribution of Chelate: Intestine,[5]; [13],- and + and ++ and +++
same,Relative Distribution of Chelate: Liver,[5]; [13],+++ and ++ and + and ± and -
same,Relative Distribution of Chelate: Vascular,[5]; [13],++ and -
same,"radioactivity of heart, aorta, kidneys and liver",[5]; within 0.5 minutes after administration,strongly radioactive
same,amount in the gallbladder,[5]; [14],a relatively small amount
same,amount of chelate in the intestine,[5]; [14],the bulk of the chelate
same,radioactivity in the hepatic parenchyma,[5]; [14],no measurable radioactivity
same,clearance kinetics,[6],bi-exponential decay
same,half time of distributive phase of clearance,[6],0.1 h
same,half time of elimination phase of clearance,[6],1.5 h
same,total radioactivity administered found in the urine,[7],less than 0.5%
